The values below are quoted from earlier work in patent US20110104257A1, “POLYMORPHISMS PREDICTIVE OF PLATINUM-COORDINATING COMPOUND-INDUCED OTOTOXICITY” (priority 2008, published 2011).

Where two headings read alike, the source gives them in different places.

Data set [1] relates to aminoglycoside ototoxicity. Conditions: Guinea pig.
In data set [2] the test system is cisplatin ototoxicity. Set-up: key to the marks not given beside the values. Conditions: Hamster.
For data set [3], the system named is cisplatin ototoxicity. Conditions: Rat.
In data set [4] the test system is aminoglycoside ototoxicity. Set-up: key to the marks not given beside the values. Conditions: Gentamicin; Rat.
For data set [5], the system named is cisplatin ototoxicity. Conditions: species cell empty.
The subject of data set [6] is aminoglycoside ototoxicity. Set-up: key to the marks not given beside the values. Conditions: Gentamicin; Mouse.
For data set [7], the system named is cisplatin ototoxicity. Set-up: key to the marks not given beside the values. Conditions: Chinchilla.
For data set [8] the following is noted: mice.
The subject of data set [9] is cisplatin ototoxicity. Set-up: key to the marks not given beside the values. Conditions: Guinea pig.
Throughout, for Efficacy of protective agent against aminoglycoside ototoxicity: key: +, low efficacy; ++, moderate efficacy; +++, high efficacy.

As to `O=C(O)CCCC[C@@H]1CCSS1` (racemic) [Lipoic acid], in data set [1] (Amikacin), the “Efficacy of protective agent against aminoglycoside ototoxicity” value (“Efficacy of protective agent” for short) is reported as “+++”. As for `c1ccc(-c2ccccn2)nc1` [2,2-DPD, 2,2′-dipyridyl], in [1] (Gentamicin), the “Efficacy of protective agent” value was “++”. Consider `NCC[C@H](O)C(=O)N[C@@H]1C[C@H](N)[C@@H](O[C@H]2O[C@H](CN)[C@@H](O)[C@H](O)[C@H]2O)[C@H](O)[C@H]1O[C@H]1O[C@H](CO)[C@@H](O)[C@H](N)[C@H]1O` [Amakacin preconditioning], for which the “Efficacy of protective agent” value in [1] (Amikacin) is recorded as “++”.

For the molecule `NCCCNCCSP(=O)(O)O` [Amifostine], the “Degree of protection against cisplatin ototoxicity” value (shortened to “Degree of protection”) with cisplatin ototoxicity [2] is “+++”. On to `N=C(N)NN` [Aminoguanidine], for which the “Degree of protection” value with cisplatin ototoxicity [3] is given as “++”. On to `CSCC[C@H](NC(=O)[C@H](Cc1ccccc1)NC[C@@H](NC[C@@H](N)CS)C(C)C)C(=O)O` [B581], for which the “Efficacy of protective agent” value in [4] was “++”. Regarding `OC[C@H]1O[C@@H](n2cnc3c(NC4CCCC4)nc(Cl)nc32)[C@H](O)[C@@H]1O` [CCPA, 2-chloro-N-cyclopentyladenosine], the “Degree of protection” value in the data set on cisplatin ototoxicity [5] was “++”. Regarding `CCSCc1ccc2c(c1)c1c3c(c4c5cc(CSCC)ccc5n5c4c1n2[C@H]1C[C@](O)(C(=O)OC)[C@]5(C)O1)CNC3=O` [CEP1347], the “Efficacy of protective agent” value in data set [1] (Gentamicin) is “+”. For `CSCC[C@@H](N)C(=O)O` [D-methionine], in [1] (Gentamicin), the “Efficacy of protective agent” value is listed as “++”. Also, the “Degree of protection” value in the data set with cisplatin ototoxicity [3] is recorded as “+++”. On to `C=C(CC)C(=O)c1ccc(OCC(=O)O)c(Cl)c1Cl` [Ethacrynic acid], for which the “Efficacy of protective agent” value in data set [1] (Gentamicin) is reported as “+”. For `COC(=O)[C@H](CCSC)NC(=O)c1ccc(NC[C@@H](N)CS)cc1-c1ccccc1` [FTI277], in data set [4], the “Efficacy of protective agent” value is “+++”.

Regarding `Nc1nc2c(ncn2[C@@H]2O[C@H](COP(=O)(O)OP(O)(O)=S)[C@@H](O)[C@H]2O)c(=O)[nH]1` [GDP-βs], the “Efficacy of protective agent” value in [4] is given as “+++”.

`[Cl-].[Cl-].[Mn+2].c1cc2nc(c1)CN[C@@H]1CCCC[C@H]1NCCN[C@@H]1CCCC[C@H]1NC2` [M40403]: the “Efficacy of protective agent” value in [6] was “++”. For the same molecule, in the data set with cisplatin ototoxicity [5], the “Degree of protection” value is 0. With `NS(=O)(=O)C#Cc1ccccc1` [Pifithrin], the “Degree of protection” value with cisplatin ototoxicity [5] is given as “++”.

With `C[C@H](Cc1ccccc1)Nc1ncnc2c1ncn2[C@@H]1O[C@H](CO)[C@@H](O)[C@H]1O` [R-PIA], the “Degree of protection” value in the data set on cisplatin ototoxicity [7] is reported as “++”. For the molecule `C[S+](CC[C@H](N)C(=O)O)C[C@H]1O[C@@H](n2cnc3c(N)ncnc32)[C@H](O)[C@@H]1O` (stereo partly shown) [SAM, S-adenosyl methionine], the “toxicity as monitored by renal dysfunction (creatinine and BUN)” value in [8] is given as “not toxic”.

For the molecule `CC(S)C(=O)NCC(=O)O` (stereo not shown) [Tiopronin], the “Degree of protection” value in the data set on cisplatin ototoxicity [3] is “++”. On to `Cc1c(C)c2c(c(C)c1O)CCC(C)(C(=O)O)O2` (stereo not shown) [Trolox], for which the “Degree of protection” value in the data set with cisplatin ototoxicity [9] was “++”.

In the case of `N.N.[Cl][Pt][Cl]` [cisplatin], the “severe, permanent, bilateral hearing loss, share of patients” value is 10-25% (adult patients), 41-61% (children) and 50% (patients receiving high doses (>400 mg/m^2)). Besides, the “Permanent hearing loss, frequency” value (children less than 5 years old) was 48%. Also, the “Permanent hearing loss, share of patients” value (patients receiving standard doses of cisplatin) was 25%.

For the molecule `Cc1c(C)c2c(c(C)c1O)CC[C@@](C)(CCC[C@H](C)CCC[C@H](C)CCCC(C)C)O2` [α-Tocopherol], the “Efficacy of protective agent” value in data set [1] (Gentamicin) is given as “+++”. The “Degree of protection” value with cisplatin ototoxicity [9] and with cisplatin ototoxicity [3] was “++” in each case. As to Glutathione ester, in the data set on cisplatin ototoxicity [3], the “Degree of protection” value is “+”. Consider Methylthiobenzoic acid, for which the “Degree of protection” value in the data set with cisplatin ototoxicity [3] is recorded as “++”. Consider SOD1: SOD1, protective agent, for which the “Efficacy of protective agent” value in data set [1] (Kanamycin + Ethacrynic acid) was “++”. Z-DEVD-fluoromethyl ketone: the “Degree of protection” value with cisplatin ototoxicity [9] is given as “+++”. Turning to Z-LEKD-fluoromethyl ketone, the “Degree of protection” value with cisplatin ototoxicity [9] was “+++”.

B1: SOD2: SOD2, protective agent (protein, UniProt P04179 25-222, looked up)
Superoxide dismutase [Mn], …: KHSLPDLPYDYGALEPHINAQIMQLHHSKHHAAYVNNLNVTEEKYQEALAKGDVTAQIALQPALKFNGGGHINHSIFWTNLSPNGGGEPKGELLEAIKRDFGSFDKFKEKLTAASVGVQGSGWGWLGFNKERGHLQIAACPNQDPLQGTTGLIPLLGIDVWEHAYYLQYKNVRPDYLKAIWNVINWENVTERYMACKK
As to B1, the “Efficacy of protective agent” value in data set [1] (Kanamycin + Ethacrynic acid) is on record as “++”.
